In paper PMC11905336, “Pyrrole‐Tethered Bisbenzoxazole Derivatives: Apoptosis‐Inducing Agents Targeting Breast Cancer Cells” (Chemical Biology & Drug Design, 2025):
Where two headings read alike, the source gives them in different places.

Legend:
MCF‐7 cell line = tested on: MCF‐7 cell line; design: method as in earlier work; details: MCF-7, XTT assay, ref Kuzu, Hepokur, Alagoz, et al. [2022], Turkmenoglu; cited from earlier work
[1] = tested on: HeLa and HepG2 cell lines; design: method as in Srivastava et al. [2015]; details: ref Srivastava et al. [2015]; cited from earlier work
[2] = tested on: A549 and MCF‐7 cell lines; design: method as in Belal and Abdelgawad [2017]; details: ref Belal and Abdelgawad [2017]; cited from earlier work
MCF‐7 = tested on: MCF‐7; design: method as in Desai et al. [2020]; details: ref Desai et al. [2020]; cited from earlier work
MDA‐MB‐231 = tested on: MDA‐MB‐231; design: method as in Desai et al. [2020]; details: ref Desai et al. [2020]; cited from earlier work
MCF‐7 cells [3] = tested on: MCF‐7 cells; design: method as in earlier work; details: MCF-7, cell cycle analysis, ref Kuzu, Hepokur, Alagoz, et al. [2022], Turkmenoglu; cited from earlier work
[4] = tested on: A549, A498, HeLa, and HepG2; design: method as in Ersan et al. [2020]; details: ref Ersan et al. [2020], cited from earlier work
Vero healthy cell line = tested on: Vero healthy cell line; design: method as in Ersan et al. [2020]; details: ref Ersan et al. [2020]; cited from earlier work
HDFa cell lines = assay: Cytotoxicity on healthy dermal fibroblasts (MTT / xCELLigence real-time cell analysis); type: cell-based; details: Homo sapiens
Experimental: The cytotoxicity of these derivatives was also assessed in dermal fibroblast cells using xCELLigence analysis as detailed in the Supporting Information.
(§1) The human dermal fibroblast (HDFa) and human breast cancer cells (MCF‐7) were obtained from the American Type Culture Collection (ATCC; Manassas, VA, USA). Cells were cultured in RPMI medium (MCF‐7) and DMEM medium (HDFa) was supplemented with 10% FBS, 1% penicillin–streptomycin, 1% amphotericin, and 2.5% L‐glutamine at 37°C in a 5% CO2 incubator.
xCELLigence Real‐Time Cell Analysis. The xCELLigence system (Real‐Time Cell Analyzer (RTCA) Dual Plate (DP) (Roche Diagnostics GmbH, Penzberg)) was used for real‐time monitoring of cell viability without the need for labeling. A total of 1 × 10^4 HDFa cells were seeded into each well of the E‐plate, and the cell proliferation curve was monitored for 24 h. […] The Cell Index (CI) value was automatically measured every hour for each well using RTCA Software (version 1.2.1) (Yetkin et al. [2021]; Yıldırım et al. [2022]).

MCF‐7 cells [5] = assay: Apoptosis/necrosis by flow cytometry, Annexin V/propidium iodide, MCF-7; type: cell-based, human; details: MCF-7, 48 h, p < 0.05
Experimental: Flow cytometry analysis was performed to evaluate the percentages of apoptosis for these compounds compared to tamoxifen. MCF‐7 cell suspensions treated with each compound for 48 h were stained using an apoptosis detection kit and subsequently analyzed using flow cytometry.
(§2) The assessment of apoptosis through flow cytometry is a valuable method for obtaining quantitative results to determine the levels of apoptosis and necrosis in cells. In our study, the 48th‐hour apoptosis levels of three synthases with the lowest IC50 values (PTB derivatives B8, B14, and B18) were evaluated. To assess apoptosis levels, MCF‐7 cells and healthy fibroblast cells were incubated with these synthases for 48 h. After this incubation period, the cells were treated with Annexin‐V APC and PE propidium iodide (PI) dyes to examine apoptosis levels. Then, to examine the levels of apoptosis, the cells were incubated at a concentration of 2 × 10^5 cells/mL with 5 μL Annexin‐V APC and 10 μL PI dyes in 100 μL Binding buffer for 15 min at room temperature. Samples were then washed twice in PBS, and the BD FACS ARIA III flow cytometry device was used to determine the percentage of apoptotic cells. (Ayaz et al. [2022]).

MCF‐7 cell lines = assay: MTT assay, cytotoxicity on MCF-7 cells; type: cell-based, human; details: for IC50: Homo sapiens, MTT; for IC50 in MCF-7 compared to tamoxifen (fold lower): MCF-7, MTT
Experimental: The cytotoxic effects of PTB derivatives on MCF‐7 breast cancer cells were evaluated using the MTT assay at various concentrations (100 nM, 1 μM, 10 μM, 50 μM, and 100 μM).
as §1
MTT Method. The MTT method is used to detect and quantify living organisms cultured with the method colorimetrically. This method relies on intact mitochondria cleaving the tetrazolium ring of the MTT dye. The MTT substance is absorbed and reduced to a colorful, water‐insoluble formazan by a mitochondria‐dependent reaction. Cell viability is measured based on the MTT reduction property, and the density of dye obtained from MTT analysis indicates the number of viable cells. In this study, cell viability was assessed using the MTT (0.5 mg/mL) solution that was added to each well. […] After adding properties to cultures, they were kept at 37°C for 24 h and overnight. Then, at 48 and 72 h after applying the molecules, 10 μL of MTT was added to each well and incubated under similar conditions for 4 h. Absorbance spectrophotometry was performed at a wavelength of 570 nm using the IC50 = [(control absorbents‐sample absorbents)/control absorbents] × 100 calculation method (Khorsandi et al. [2017]).

MCF‐7 cells [6] = assay: Cell cycle phases by flow cytometry with propidium iodide, MCF-7; type: cell-based, human; details: for Change of G2 phase averages vs control: MCF-7, 48 h at IC50; for Change of G1 phase vs control / Change of S phase vs control: MCF-7, 48 h at IC50, p < 0.05
Experimental: In the flow cytometry analysis, cell cycle kits facilitated the removal of cytoskeletal and nuclear proteins by disrupting lipid components of the cell membrane using detergents. […] Consequently, we were able to identify abnormal DNA distributions and cell cycle phase profiles in the MCF‐7 breast cancer cell line.
MCF‐7 cells were seeded in a 6‐well plate at a density of 1 × 10^6 cells and incubated for 24 h. […] MCF‐7 cells were then trypsinized, stained, and analyzed using a BD FACSAria III flow cytometer (BD Biosciences, Bedford, MA, USA) with FACS Diva Software and ModFit LT.
The cell cycle kit (MCE USA‐HY‐K1071‐50 T) works on the principle of dissolving the lipids in the cell membrane with the help of detergents. This kit was used to identify cells with abnormal DNA and cell cycle phase distributions in a breast cancer cell line. It was analyzed by removing the cytoskeleton and nuclear proteins with the help of trypsin and digesting the cellular RNA by enzymes. Cells were seeded at 1 × 10^6 in a 6‐well plate and incubated for 24 h. […] Cells were removed by adding trypsin to adherent cells. They were centrifuged at 1000 g for 3–5 min at 4°C, and then the supernatant was discarded. One milliliter of prechilled PBS was added to resuspend the cells, centrifuged at 1000 g for 3–5 min at 4°C, and detected via BD FACSAria III flow cytometer (BD Biosciences, Bedford, MA, USA). Percentage data were obtained using FACS Diva Software and ModFit LT (Şimşek et al. [2020]).

HDFa cells = assay: Apoptosis/necrosis by flow cytometry, Annexin V/propidium iodide, HDFa; type: cell-based, human; details: 48 h, same concentrations as in MCF-7, p < 0.05
Experimental: Subsequently, flow cytometry analysis was conducted on HDFa cells.
as §2

[7] = 24 h, values greater than 100 not calculated, read-out: IC50 (μM) for HDFa cell lines, 24 h
[8] = 72 h, values greater than 100 not calculated, read-out: IC50 (μM) for HDFa cell lines, 72 h
[9] = read-out: IC50 (μM) for HDFa cell lines, 48 h, values greater than 100 not calculated
[10] = MCF7, read-out: IC50 (μM) for MCF‐7 cell lines, 48 h
[11] = MCF7, 24 h, read-out: IC50 (μM) for MCF‐7 cell lines, 24 h
[12] = MCF7, 72 h, read-out: IC50 (μM) for MCF‐7 cell lines, 72 h

Row | SMILES | IC50 (HDFa cell lines; [7]) | IC50 (HDFa cell lines; [8]) | IC50 (HDFa cell lines; [9]) | IC50 (MCF‐7 cell lines; [10]) | IC50 (MCF‐7 cell lines; [11]) | IC50 (MCF‐7 cell lines; [12]) | also measured
1 | O=c1[nH]cc(F)c(=O)[nH]1 [5‐FU, 5‐fluorouracil] | – | – | – | – | – | – | IC50 (MCF‐7 cell line): 5.06 µM
2 | c1ccc(Cn2nnc(-c3ccccc3)c2-c2nc3ccccc3o2)cc1 [Compound 10] | – | – | – | – | – | – | IC50 [1]: 5 to 30 µg/mL
3 | c1ccc(-c2cc(-c3nc4ccccc4o3)[nH]n2)cc1 [Compound 11] | – | – | – | – | – | – | IC50 [2]: 0.12 to 0.19 µM
4 | c1ccc2nc(-c3nc4ccccc4o3)cnc2c1 [Compound 12] | – | – | – | – | – | – | IC50 (MCF‐7): 0.53 µM; IC50 (MDA‐MB‐231): 0.5 µM
5 | COc1ccc2oc(C(=O)N3CCCCC3)nc2c1 [Compound 14] | – | – | – | – | – | – | G0/G1 phase arrest (MCF‐7 cells [3]): 71.2%
6 | c1ccc2oc(CNCc3nc4ccccc4o3)nc2c1 [Compound 16] | – | – | – | – | – | – | IC50 ([4]; range across A549, A498, HeLa, HepG2): 0.56 to 2.24 µM; Selectivity for A549 lung cancer cell line compared to other tested cancer cell lines [4]: fourfold higher selectivity; Cytotoxicity against Vero healthy cell line (Vero healthy cell line): minimal cytotoxicity
7 | COc1ccc2oc(-c3ccc(-c4nc5ccccc5o4)[nH]3)nc2c1 [Compound B8, 2‐(5‐(Benzo[d]Oxazol‐2‐Yl)‐1H‐Pyrrol‐2‐Yl)‐5‐Methoxybenzo[d]Oxazole] | ≥ 100 µM | ≥ 100 µM | ≥ 100 µM | 1.89 ± 0.12 µM | 4.4 ± 0.79 µM | 3.09 ± 0.21 µM | Secondary apoptosis vs control (MCF‐7 cells [5]): significantly elevated; IC50 in MCF-7 compared to tamoxifen (fold lower) (MCF‐7 cell lines): approximately 8 fold
8 | COC(=O)c1ccc2nc(-c3ccc(-c4nc5cc(C)ccc5o4)[nH]3)oc2c1 [Compound B14, Methyl 2‐(5‐(5‐Methylbenzo[d]Oxazol‐2‐Yl)‐1H‐Pyrrol‐2‐Yl)benzo[d]Oxazole‐6‐Carboxylate] | 94.5 ± 1.37 µM | 97.4 ± 2.83 µM | 96.3 ± 1.38 µM | 0.95 ± 1.01 µM | 3.28 ± 0.74 µM | 3.02 ± 2.18 µM | Necrosis percentage vs control (MCF‐7 cells [5]): significant changes in all groups except for the B14 group; IC50 in MCF-7 compared to tamoxifen (fold lower) (MCF‐7 cell lines): approximately 8 fold; Change of G2 phase averages vs control (MCF‐7 cells [6]): No significant changes; Change of G1 phase vs control (MCF‐7 cells [6]): significant increase; Change of S phase vs control (MCF‐7 cells [6]): corresponding decrease
9 | COc1ccc2oc(-c3ccc(-c4nc5ccc(C)cc5o4)[nH]3)nc2c1 [Compound B15, 5‐Methoxy‐2‐(5‐(6‐Methylbenzo[d]Oxazol‐2‐Yl)‐1H‐Pyrrol‐2‐Yl)benzo[d]Oxazole] | ≥ 100 µM | ≥ 100 µM | ≥ 100 µM | 8.09 ± 2.06 µM | 2.49 ± 1.64 µM | 2.53 ± 1.56 µM | –
10 | COC(=O)c1ccc2nc(-c3ccc(-c4nc5ccc(C)cc5o4)[nH]3)oc2c1 [Compound B16, Methyl 2‐(5‐(6‐Methylbenzo[d]Oxazol‐2‐Yl)‐1H‐Pyrrol‐2‐Yl)benzo[d]Oxazole‐6‐Carboxylate] | 95.3 ± 1.03 µM | 99.3 ± 1.07 µM | 97.3 ± 1.09 µM | 2.82 ± 2.14 µM | 3.03 ± 1.35 µM | 2.93 ± 1.02 µM | –
11 | COc1ccc2oc(-c3ccc(-c4nc5cc(Cl)ccc5o4)[nH]3)nc2c1 [Compound B17, 5‐Chloro‐2‐(5‐(5‐Methoxybenzo[d]Oxazol‐2‐Yl)‐1H‐Pyrrol‐2‐Yl)benzo[d]Oxazole] | 98.3 ± 1.57 µM | 99 ± 1 µM | 99 ± 1.96 µM | 3.44 ± 1.12 µM | 3.7 ± 1.12 µM | 3.03 ± 0.76 µM | –
12 | COC(=O)c1ccc2nc(-c3ccc(-c4nc5cc(OC)ccc5o4)[nH]3)oc2c1 [Compound B18, Methyl 2‐(5‐(5‐Methoxybenzo[d]Oxazol‐2‐Yl)‐1H‐Pyrrol‐2‐Yl)benzo[d]Oxazole‐6‐Carboxylate] | 98.3 ± 1.58 µM | ≥ 100 µM | ≥ 100 µM | 1.3 ± 0.98 µM | 3.53 ± 1.35 µM | 2.69 ± 0.73 µM | Secondary apoptosis vs control (MCF‐7 cells [5]): significantly elevated; IC50 in MCF-7 compared to tamoxifen (fold lower) (MCF‐7 cell lines): approximately 8 fold; Average number of viable cells vs control (HDFa cells): significant decrease; Percentage of necrosis vs control (HDFa cells): notable increase; Change of G2 phase averages vs control (MCF‐7 cells [6]): No significant changes; Change of G1 phase vs control (MCF‐7 cells [6]): significant increase; Change of S phase vs control (MCF‐7 cells [6]): corresponding decrease
13 | Cc1ccc2nc(-c3ccc(-c4nc5cc(Cl)ccc5o4)[nH]3)oc2c1 [Compound B19, 5‐Chloro‐2‐(5‐(6‐Methylbenzo[d]Oxazol‐2‐Yl)‐1H‐Pyrrol‐2‐Yl)benzo[d]Oxazole] | 97.3 ± 1.34 µM | 99.82 ± 0.89 µM | 97.3 ± 1.2 µM | 2.97 ± 1.12 µM | 2.83 ± 0.87 µM | 3.42 ± 1.12 µM | –
14 | COC(=O)c1ccc2nc(-c3ccc(-c4nc5cc(Cl)ccc5o4)[nH]3)oc2c1 [Compound B20, Methyl 2‐(5‐(5‐Chlorobenzo[d]Oxazol‐2‐Yl)‐1H‐Pyrrol‐2‐Yl)benzo[d]Oxazole‐6‐Carboxylate] | 95.4 ± 1.94 µM | ≥ 100 µM | 97.3 ± 1.43 µM | 3.25 ± 0.97 µM | 2.97 ± 1.13 µM | 3.07 ± 2.96 µM | –
15 | CC/C(=C(\c1ccccc1)c1ccc(OCCN(C)C)cc1)c1ccccc1 [Tamoxifen, reference compound] | – | – | – | – | – | – | Secondary apoptosis vs control (MCF‐7 cells [5]): significantly elevated; Average number of viable cells vs control (HDFa cells): significant decrease; Percentage of necrosis vs control (HDFa cells): notable increase; Change of G2 phase averages vs control (MCF‐7 cells [6]): No significant changes; Change of G1 phase vs control (MCF‐7 cells [6]): significant increase; Change of S phase vs control (MCF‐7 cells [6]): corresponding decrease
